Patent publication US5276049A, “Cyclic urea derivatives, pharmaceutical compositions containing these compounds and methods of using the same” (Dr. Karl Thomae GmbH, priority 1991, dated 1994)
Where a name gives a salt, the structure may show the parent alone.

Legend:
Human Thrombocytes = assay: Fibrinogen Binding to Human Thrombocytes (I125-fibrinogen, gel-filtered platelets); settings: inhibition of I125-fibrinogen binding to gel-filtered human platelets, ADP, 20 minutes, ambient temperature; read-out: Fibrinogen Binding test IC50
Experimental: 1. Fibrinogen Binding to Human Thrombocytes Blood obtained by puncture of an antecubital vein was anticoagulated with trisodium citrate (final concentration: 13 mM) and centrifuged for 10 minutes at 170 *g. The supernatant platelet-rich plasma was placed on a Sepharose 2B column (Pharmacia) and eluted with a solution of 90 mM common salt, 14 mM trisodium citrate, 5 mM glucose and 50 mM tris(hydroxymethyl)aminomethane, adjusted to pH 7.4. The gel-filtered platelets (GFP) appearing in front of the plasma proteins were used for the binding tests. 50 μl of a 60 mM calcium chloride solution, 50 μl of a 0.6 mM adenosine diphosphate solution, 100 μl of substance solution or solvent and 50 μl of fibrinogen solution (containing 3 μg I125-fibrinogen) were added to 750 μl of GFP and incubated for 20 minutes at ambient temperature. The non-specific binding was measured in the presence of 3 mg/ml of cold fibrinogen. 900 μl of the incubate were carefully pipetted onto 250 μl of silicon oil (AP 38: AR 20, 1:2 v/v, Wacker Chemie) in Eppendorf vessels and centrifuged for 2 minutes at 10,000 *g. The aqueous supernatant and some of the oil were removed, the tip of the vessel with the platelet pellet was cut off and the quantity of bound fibrinogen was measured in a gamma-counter. The concentration of substance which inhibited fibrinogen binding by 50% was calculated from a series of concentrations and given as the IC50.

[1] = system: thrombocyte aggregation in platelet-rich plasma; assay: Antithrombotic effect: collagen-induced thrombocyte aggregation in platelet-rich plasma (Born and Cross); assay type: cell-based; settings: human platelet-rich plasma, 10 minutes preincubation at 37° C., read-out: Inhibition of platelet aggregation EC50
Experimental: 2. Antithrombotic Effect Method: The thrombocyte aggregation was measured in platelet-rich plasma from healthy test subjects using the Born and Cross method (J. Physiol. 170: 397 (1964)). In order to inhibit coaggulation the blood was mixed with 3.14% sodium citrate in a ratio by volume of 1:10. Collagen-induced aggregation: The decrease in the optical density of the platelet suspension was measured photometrically and recorded after the addition of the aggregation-initiating substance. The speed of aggregation was concluded from the angle of inclination of the density curve. The point on the curve at which there was maximum transmittance was used to calculate the optical density. The quantity of collagen used was as little as possible but sufficient to give an irreversible reaction curve. Standard commercial collagen produced by Hormonchemie of Munich was used. Before the addition of collagen the plasma was incubated with the substance for 10 minutes at 37° C. From the measurements obtained, an EC50 was determined graphically, relating to a 50% change in the optical density in terms of inhibiting aggregation.

| Structure (SMILES) | IC50 (Human Thrombocytes) [nM] | EC50 [1] [nM] |
| --- | --- | --- |
| CC(C)(CC(=O)O)c1ccc(N2CCN(c3ccc(C(=N)N)cc3)C2=O)cc1 [1(51), 1-(4-amidino-phenyl)-3-[4-(3-carboxy-2-methyl-2-propyl)-phenyl]-imidazolidin-2-one] | 3600 | 13000 |
| NCc1ccc(N2CCN(c3ccc(CCC(=O)O)cc3)C2=O)cc1 [1(59)] | 150 | 350 |
| N=C(N)c1ccc(-c2ccc(N3CC(=O)N(CCC(=O)O)C3=O)cc2)cc1 [1(2), 1-(4'-amidino-4-biphenylyl)-3-(2-carboxy-ethyl)-imidazolidin-2,4-dione] | 96 | 320 |
| N=C(N)c1ccc(-c2ccc(C3CN(CCC(=O)O)C(=O)N3)cc2)cc1 (centres unmarked) [4(15), 4-(4'-amidino-4-biphenylyl)-1-(2-carboxy-ethyl)-imidazolidin-2-one hydrochloride] | 42 | 300 |
| COC(=O)CCn1cc(-c2ccc(-c3ccc(C(=N)N)cc3)cc2)n(-c2ccccc2)c1=O [2(106), 4-(4'-amidino-4-biphenylyl)-1-(2-methoxycarbonyl-ethyl)-3-phenyl-3H-imidazol-2-one hydrochloride] | 2700 | 6600 |
| N=C(N)c1ccc(-c2ccc(-n3c(=O)n(CCC(=O)O)c4cccnc43)cc2)cc1 [1(143), 3-(4'-amidino-4-biphenylyl)-1-(2-carboxy-ethyl)-3H-imidazo[4,5-b]pyridin-2-one] | > 10000 | 22000 |
| COC(=O)CN1CCCN(c2ccc(-c3ccc(C(=N)N)cc3)cc2)C1=O [2(5), 1-(4'-amidino-4-biphenylyl)-3-methoxycarbonylmethyl-3,4,5,6-tetrahydro-1H-pyrimidin-2-one hydrochloride] | 5600 | 25000 |
| N=C(N)c1ccc(-n2ccn(-c3ccc(CC(N)C(=O)O)cc3)c2=O)cc1 (centres unmarked) [1(148), 1-(4-amidino-phenyl)-3-[4-(2-amino-2-carboxy-ethyl)-phenyl]-3H-imidazol-2-one] | 25 | 110 |
| N=C(N)c1ccc(-c2ccc(-n3ccn(CCC(=O)O)c3=O)cc2)cc1 [1(3), 1-(4'-amidino-4-biphenylyl)-3-(2-carboxy-ethyl)-3H-imidazol-2-one] | 190 | 1700 |
| NCc1ccc(N2CCN(c3ccc(OCC(=O)O)cc3)C2=O)cc1 [1(141), 1-(4-aminomethyl-phenyl)-3-(4-carboxymethyloxyphenyl)-imidazolidin-2-one] | 310 | 630 |
| N=C(N)c1ccc(N2CCN(c3ccc([S+]([O-])CC(=O)O)cc3)C2=O)cc1 (centres unmarked) [1(49), 1-(4-amidino-phenyl)-3-(4-carboxymethylsulphinylphenyl)-imidazolidin-2-one] | 26 | 140 |
| COC(=O)CCc1ccc(N2C(=O)CN(c3ccc(C(=N)N)cc3)C2=O)cc1 [2(53), 1-(4-amidino-phenyl)-3-[4-(2-methoxycarbonyl-ethyl)-phenyl]-imidazolidin-2,4-dione hydrochloride] | 4500 | 200 |
| COC(=O)CCc1ccc(-n2cc(C)n(-c3ccc(C(=N)N)cc3)c2=O)cc1 [2(122), 3-(4-amidino-phenyl)-1-[4-(2-methoxycarbonyl-ethyl)-phenyl]-4-methyl-3H-imidazol-2-one hydrochloride-hydrate] |  | 1200 |
| N=C(N)c1ccc(-c2ccc(N3CCN(CCC(=O)O)C3=O)nn2)cc1 [1(28), 1-[6-(4-amidino-phenyl)-3-pyridazinyl]-3-(2-carboxy-ethyl)-imidazolidin-2-one] | 52 | 390 |
| CC(=O)N(CCN1CCN(c2ccc(C(=N)N)cc2)C1=O)CC(=O)O [Example 30, 1-[2-(N-Acetyl-N-carboxymethyl-amino)-ethyl]-3-(4-amidino-phenyl)-imidazolidin-2-one] | 4400 | 8300 |
| COC(=O)CCc1ccc(N2CCN(c3ccc(CN)cc3C)C2=O)cc1 [8(5), 1-(4-aminomethyl-2-methyl-phenyl)-3-[4-(2-methoxycarbonyl-ethyl)-phenyl]-imidazolidin-2-one] | 3000 | 5900 |
| COC(=O)CCC1CCC(N2CCN(c3ccc(C(=N)N)cc3)C2=O)CC1 (centres unmarked) [2(43), 1-(4-amidino-phenyl)-3-[4-(2-methoxycarbonyl-ethyl)-cyclohexyl]-imidazolidin-2-one hydrochloride] | 420 | 100 |

| Structure (SMILES) | IC50 (Human Thrombocytes) [nM] | EC50 [1] [nM] |
| --- | --- | --- |
| N=C(N)c1ccc(-c2ccc(N3CCN(CCC(=O)O)C3=O)cc2)cc1 [1(1), 1-(4'-amidino-4-biphenylyl)-3-(2-carboxy-ethyl)-imidazolidin-2-one] | 45 | 1500 |
| COC(=O)CCN1CCN(c2ccc(-c3ccc(C(=N)N)cc3)nn2)C1=O [2(27), 1-[6-(4-amidino-phenyl)-3-pyridazinyl]-3-(2-methoxycarbonyl-ethyl)-imidazolidin-2-one hydrochloride] | 2500 | 490 |
| N=C(N)c1ccc(-c2ccc(N3CCN(CCC(=O)O)S3(=O)=O)cc2)cc1 [1(21), 2-(4'-amidino-4-biphenylyl)-5-(2-carboxy-ethyl)-3,4-dihydro-2H,5H-1,2,5-thiadiazol-1,1-dioxide] | 31 | 620 |
| COC(=O)CCN1CCN(C2CCN(c3ccc(C(=N)N)cc3)CC2)C1=O [4(11), 1-[1-(4-amidino-phenyl)-4-piperidinyl]-3-(2-methoxycarbonyl-ethyl)-imidazolidin-2-one hydrochloride] | 45000 | 2300 |
| Cc1nn(-c2ccc(C(=N)N)cc2)c(=O)n1-c1ccc(CCC(=O)OCC(C)C)cc1 [11(12), 2-(4-amidino-phenyl)-4-[4-(2-isobutyloxycarbonyl-ethyl)-phenyl]-5-methyl-4H-1,2,4-triazol-3-one hydrochloride] | 43 | 30 |
| N=C(N)c1ccc(-n2ccn(-c3ccc(C=CC(=O)O)cc3)c2=O)cc1 [1(147), 1-(4-amidino-phenyl)-3-[4-(2-carboxy-ethenyl)-phenyl]-3H-imidazol-2-one] | 27 | 160 |
| N=C(N)c1ccc(-n2ccn(-c3ccc(CCC(=O)O)cc3)c2=O)cc1 [1(67), 1-(4-amidino-phenyl)-3-[4-(2-carboxy-ethyl)-phenyl]-3H-imidazol-2-one] | 30 | 60 |
| COC(=O)CSc1ccc(N2CCN(c3ccc(C(=N)N)cc3)C2=O)cc1 [2(45), 1-(4-amidino-phenyl)-3-(4-methoxycarbonyl-methylthio-phenyl)-imidazolidin-2-one] |  | 280 |
| COC(=O)CCc1ccc(-n2cnn(-c3ccc(C(N)=NC(=O)OC)cc3)c2=O)cc1 [5(11), 2-(4-methoxycarbonylamidino-phenyl)-3-[4-(2-methoxycarbonyl-ethyl)-phenyl]-4H-1,2,4-triazol-3-one] | 5700 |  |
| Cc1cn(-c2ccc(CCC(=O)O)cc2)c(=O)n1-c1ccc(C(=N)N)cc1 [1(144), 3-(4-amidino-phenyl)-1-[4-(2-carboxy-ethyl)-phenyl]-4-methyl-3H-imidazol-2-one] |  | 600 |
| Cc1nn(-c2ccc(C(=N)N)cc2)c(=O)n1-c1ccc(CCC(=O)OC(C)C)cc1 [11(11), 2-(4-amidino-phenyl)-4-[4-(2-isopropyloxycarbonyl-ethyl)-phenyl]-5-methyl-4H-1,2,4-triazol-3-one hydrochloride] |  | 210 |
| COC(=O)CS(=O)(=O)c1ccc(N2CCN(c3ccc(C(=N)N)cc3)C2=O)cc1 [Example 18, 1-(4-Amidino-phenyl)-3-(methoxycarbonylmethylsulphonyl-phenyl)-imidazolidin-2-one] |  | 240 |
| COC(=O)CCc1ccc(-n2nc(C)n(-c3ccc(C(=N)N)cc3)c2=O)cc1 [2(117), 4-(4-amidino-phenyl)-2-[4-(2-methoxycarbonyl-ethyl)-phenyl]-5-methyl-4H-1,2,4-triazol-3-one hydrochloride] |  | 630 |
| COC(=O)CCC1CCC(N2CCN(c3ccc(C(=N)NC(=O)OC)cc3)C2=O)CC1 (centres unmarked) [5(12), 1-(4-methoxycarbonylamidino-phenyl)-3-[4-(2-methoxycarbonyl-ethyl)-cyclohexyl]-imidazolidin-2-one] | 3700 |  |
| Cc1nn(-c2ccc(CCC(=O)O)cc2)c(=O)n1-c1ccc(C(=N)N)cc1 [1(137), 4-(4-amidino-phenyl)-2-[4-(2-carboxy-ethyl)-phenyl]-5-methyl-4H-1,2,4-triazol-3-one] |  | 280 |
| COC(=O)CCc1ccc(-n2ncn(-c3ccc(C(=N)N)cc3)c2=O)cc1 [2(124), 4-(amidino-phenyl)-2-[4-(2-methoxycarbonyl-ethyl)-phenyl]-4H-1,2,4-triazol-3-one hydrochloride] |  | 130 |
